Here are results for two substances from US20060140869A1, “Polymeric contrast agents for use in medical imaging” (priority 2004, published 2006).

The assay relates to rat mammary adenocarcinoma (Mat B) tumor. The experiment in a line: MR imaging of subcutaneous Mat B tumors in rats after intravenous injection of polymeric contrast agent. It is filed as in vivo. Conditions: Mat B tumor in Fisher female rats. As to the method:
Fisher female rats were implanted subcutaneously with rat mammary adenocarcinoma cells (ATTC Mat B cells) that were grown to a suitable density in tissue culture. The implanted cells grew into tumors of 1-2 cm diameter in about 10 to 14 days and continued to grow to larger sizes when experiments extended beyond that time frame.
The reptating polymer that was used (Polylysine-Gd-DTPA) was synthesized using a synthesis method described above with polymer length of 780 monomer units, molecular weight of 460 kDaltons, and about 98% of lysines acylated with DTPA (i.e. about 764 Gd ions). The animals were injected intravenously at a dose of 0.025 mmoles Gd/kG. FIG. 1 are a series of images taken wherein the imaging was done pre-injection, one minute after injection, 60 minutes after injection, and 24 hours after injection with a T1 weighted spin echo pulse sequence (TR=250 ms, TE=9 ms), 12 centimeter FOV, 1 millimeter slices. Receive coil was a solenoid coil of about 5 centimeters diameter. Imaging was done on a Signa 1.5 Tesla scanner.
FIG. 2 is a graph of the slopes in signal change for all the pixels in the tumor and the highest 10% of pixels in the tumor. The signals are heterogenous in space due to angiogenesis being most prevalent in the outer rim of the tumor. Thus in order to capture the regions of interest with high permeability, the average signal associated with the pixels of the entire tumor in the image slice is plotted in addition to the average signal associated with the highest 10% of the pixels. The highest 10% of the pixels represents the hypermeable regions associated with angiogenic processes. The use of all pixels represents the average values for the entire tumor which includes then the center of tumors which are often necrotic and unreactive in terms of blood perfusion. These regions are not biologically relevant and thus the total average values have more “noise” that are associated with the necrotic processes which are not of direct interest in the present case. […]

The mark [1] stands for this setting: linear regression fit, intravenous injection, T1 weighted spin echo, 1.5 Tesla.

In the case of Polylysine-Gd-DTPA [Example 1], the “magnetic resonance signal change compared with the polymer of Example 2” value (0.025 mmoles Gd/kG intravenously) is listed as “enhanced magnetic resonance signals”.

Polylysine-Gd-DTPA [Example 2]: under setting [1], the “slope of signal change, all the pixels in the tumor” value came to 7 % per hour and the “slope of signal change, highest 10% of the pixels in the tumor” value worked out at 14 % per hour.
